Source: PubChem BioAssay (NCI)
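Interpolation was linear, between the two tested concentrations surrounding the appropriate level; five concentrations were tested over 48 hours in 96-well plates. GI50: concentration for 50% inhibition of growth. TGI: total growth inhibition.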

Experiments:
Experiment in all cases: NCI anticancer screen, dose series, 48 h
[1] = tested on: 786-0 renal
[2] = tested on: A498 renal
[3] = tested on: A549 NSCLC
[4] = tested on: ACHN renal
[5] = tested on: BT-549 breast
[6] = tested on: CAKI-1 renal
[7] = tested on: CCRF-CEM leukemia
[8] = tested on: COLO 205 colon
[9] = tested on: DU-145 prostate
[10] = tested on: EKVX NSCLC
[11] = tested on: HL-60(TB) leukemia
[12] = tested on: HOP-62 NSCLC
[13] = tested on: HOP-92 NSCLC
[14] = tested on: HS 578T breast
[15] = tested on: HT29 colon
[16] = tested on: IGROV1 ovarian
[17] = tested on: K-562 leukemia
[18] = tested on: KM12 colon
[19] = tested on: LOX IMVI melanoma
[20] = tested on: M14 melanoma
[21] = tested on: MALME-3M melanoma
[22] = tested on: MCF7 breast
[23] = tested on: MDA-MB-231 breast
[24] = tested on: MDA-MB-435
[25] = tested on: MOLT-4 leukemia
[26] = tested on: NCI-H226 lung
[27] = tested on: NCI-H23 lung
[28] = tested on: NCI-H460 lung
[29] = tested on: NCI-H522 lung
[30] = tested on: NCI/ADR-RES ovarian
[31] = tested on: OVCAR-3 ovarian
[32] = tested on: OVCAR-4 ovarian
[33] = tested on: OVCAR-5 ovarian
[34] = tested on: PC-3 prostate
[35] = tested on: RPMI-8226 leukemia
[36] = tested on: RXF 393 renal
[37] = tested on: SF-268 CNS
[38] = tested on: SF-295 CNS
[39] = tested on: SF-539 CNS
[40] = tested on: SK-MEL-2 melanoma
[41] = tested on: SK-MEL-28 melanoma
[42] = tested on: SK-MEL-5 melanoma
[43] = tested on: SK-OV-3 ovarian
[44] = tested on: SN12C renal
[45] = tested on: SNB-19 CNS
[46] = tested on: SNB-75 CNS
[47] = tested on: SR leukemia
[48] = tested on: T-47D breast
[49] = tested on: TK-10 renal
[50] = tested on: U251 CNS
[51] = tested on: UACC-257 melanoma
[52] = tested on: UACC-62 melanoma
[53] = tested on: HCC-2998 colon
[54] = tested on: HCT-116 colon
[55] = tested on: HCT-15 colon
[56] = tested on: OVCAR-8 ovarian
[57] = tested on: SW-620 colon
[58] = tested on: UO-31 renal

`Cc1nn(-c2ccc([N+](=O)[O-])cc2)c2ncnc(N/N=C/c3ccccc3O)c12` showed a GI50 [1] of 0.539 µM, a TGI [1] of 3.41 µM and a GI50 [2] of 2.92 µM. The TGI [2] was > 66.9 µM, the GI50 [3] was 0.563 µM and the TGI [3] was 5.41 µM. The GI50 [4] was 0.3 µM, the TGI [4] was 1.29 µM and the GI50 [5] was 0.431 µM. For the same compound, the TGI [5] was > 42.4 µM, the GI50 [6] was 0.496 µM and the TGI [6] was 1.82 µM. The GI50 [7] was 0.222 µM, the TGI [7] was > 100 µM and the GI50 [8] was 0.385 µM. For the same compound, the TGI [8] was 10.4 µM, the GI50 [9] was 0.382 µM and the TGI [9] was > 100 µM. For the same compound, the GI50 [10] was 2.41 µM, the TGI [10] was > 100 µM and the GI50 [11] was 0.31 µM. It also gave a GI50 [12] of 0.397 µM, a TGI [12] of 3.29 µM and a GI50 [13] of 0.806 µM. It also gave a TGI [13] of 4.63 µM, a GI50 [14] of 1.43 µM and a TGI [14] of 8.27 µM. For the same compound, the GI50 [15] was 1.3 µM, the TGI [15] was > 100 µM and the GI50 [16] was 0.462 µM. For the same compound, the TGI [16] was 4.31 µM, the GI50 [17] was 0.448 µM and the TGI [17] was > 100 µM. The GI50 [18] was 0.379 µM, the TGI [18] was > 100 µM and the GI50 [19] was 0.22 µM. For the same compound, the TGI [19] was 1.47 µM, the GI50 [20] was 0.299 µM and the TGI [20] was 2.2 µM. The GI50 [21] was 0.62 µM, the TGI [21] was 3.95 µM and the GI50 [22] was 0.36 µM. For the same compound, the TGI [22] was > 100 µM, the GI50 [23] was 0.482 µM and the TGI [23] was 3.97 µM. The GI50 [24] was 0.654 µM, the TGI [24] was > 100 µM and the GI50 [25] was 0.321 µM. The TGI [25] was > 100 µM, the GI50 [26] was 2.56 µM and the TGI [26] was > 26.2 µM. It also gave a GI50 [27] of 0.864 µM, a TGI [27] of 3.76 µM and a GI50 [28] of 0.34 µM. It also gave a TGI [28] of 1.46 µM, a GI50 [29] of 0.365 µM and a TGI [29] of 7.56 µM. For the same compound, the GI50 [30] was 0.337 µM, the TGI [30] was 3.66 µM and the GI50 [31] was 0.262 µM. For the same compound, the TGI [31] was 1.56 µM, the GI50 [32] was 0.202 µM and the TGI [32] was 4.62 µM. The GI50 [33] was 2.04 µM, the TGI [33] was > 100 µM and the GI50 [34] was 0.587 µM. For the same compound, the TGI [34] was > 100 µM, the GI50 [35] was 0.619 µM and the TGI [35] was > 100 µM. The GI50 [36] was 0.366 µM, the TGI [36] was 1.62 µM and the GI50 [37] was 0.313 µM. For the same compound, the TGI [37] was > 100 µM, the GI50 [38] was 1.14 µM and the TGI [38] was 10.3 µM. For the same compound, the GI50 [39] was 0.424 µM, the TGI [39] was 1.77 µM and the GI50 [40] was 1.57 µM. For the same compound, the TGI [40] was > 45 µM, the GI50 [41] was 0.443 µM and the TGI [41] was 5.53 µM. The GI50 [42] was 0.448 µM, the TGI [42] was 2.25 µM and the GI50 [43] was 0.497 µM. For the same compound, the TGI [43] was > 22.1 µM, the GI50 [44] was 0.399 µM and the TGI [44] was 3.17 µM. For the same compound, the GI50 [45] was 0.507 µM, the TGI [45] was 8.65 µM and the GI50 [46] was 0.554 µM. The TGI [46] was 4.23 µM, the GI50 [47] was 0.166 µM and the GI50 [48] was 0.542 µM. It also gave a TGI [48] of 4.95 µM, a GI50 [49] of 0.942 µM and a TGI [49] of 7.78 µM. For the same compound, the GI50 [50] was 0.332 µM, the TGI [50] was 2.44 µM and the GI50 [51] was 1.47 µM. The TGI [51] was 8.56 µM, the GI50 [52] was 0.986 µM and the TGI [52] was 3.76 µM.

For `Nc1c(C(=O)c2cccc(-c3cccnc3)c2)cnn1-c1ccc(F)cc1F`, the GI50 [1] was 18.1 µM, the TGI [1] was > 25 µM and the GI50 [2] was 2.64 µM. For the same compound, the TGI [2] was > 23 µM, the GI50 [3] was 2.05 µM and the TGI [3] was > 25 µM. The GI50 [4] was 6.92 µM, the TGI [4] was > 25 µM and the GI50 [5] was 5.91 µM. For the same compound, the TGI [5] was > 25 µM, the GI50 [6] was 4.53 µM and the TGI [6] was > 25 µM. For the same compound, the GI50 [7] was 10.2 µM, the TGI [7] was > 25 µM and the GI50 [8] was 1.19 µM. The TGI [8] was > 25 µM, the GI50 [9] was 12 µM and the TGI [9] was > 25 µM. The GI50 [53] was 9.43 µM, the TGI [53] was > 25 µM and the GI50 [54] was 2.87 µM. For the same compound, the TGI [54] was > 25 µM, the GI50 [55] was 1.11 µM and the TGI [55] was > 25 µM. For the same compound, the GI50 [11] was 5.76 µM, the TGI [11] was > 25 µM and the GI50 [12] was 5.49 µM. For the same compound, the TGI [12] was > 25 µM, the GI50 [13] was 1.94 µM and the TGI [13] was 17.4 µM. For the same compound, the GI50 [14] was 7.44 µM, the TGI [14] was > 25 µM and the GI50 [15] was 1.05 µM. The TGI [15] was > 25 µM, the GI50 [16] was 2.06 µM and the TGI [16] was > 25 µM. It also gave a GI50 [17] of 0.962 µM, a TGI [17] of 24.5 µM and a GI50 [18] of 1.21 µM. For the same compound, the TGI [18] was > 25 µM, the GI50 [19] was 5.76 µM and the TGI [19] was > 25 µM. The GI50 [20] was 2.71 µM, the TGI [20] was > 25 µM and the GI50 [21] was 2.26 µM. The TGI [21] was > 20.9 µM, the GI50 [22] was 1.59 µM and the TGI [22] was > 25 µM. For the same compound, the GI50 [23] was 3.8 µM, the TGI [23] was > 25 µM and the GI50 [24] was 0.476 µM. For the same compound, the TGI [24] was 1.36 µM, the GI50 [25] was 7.85 µM and the TGI [25] was > 25 µM. For the same compound, the GI50 [26] was 6.96 µM, the TGI [26] was > 25 µM and the GI50 [27] was 4.41 µM. For the same compound, the TGI [27] was > 25 µM, the GI50 [28] was 1.52 µM and the TGI [28] was > 25 µM. For the same compound, the GI50 [29] was 1.57 µM, the TGI [29] was > 15 µM and the GI50 [30] was 1.2 µM. The TGI [30] was > 21.9 µM, the GI50 [31] was 3.93 µM and the TGI [31] was > 25 µM. The GI50 [32] was 7.77 µM, the TGI [32] was > 25 µM and the GI50 [33] was > 19.6 µM. For the same compound, the TGI [33] was > 25 µM, the GI50 [56] was 8.13 µM and the TGI [56] was > 25 µM. For the same compound, the GI50 [34] was 5.12 µM, the TGI [34] was > 25 µM and the GI50 [35] was 9.54 µM. For the same compound, the TGI [35] was > 25 µM, the GI50 [36] was 7.91 µM and the TGI [36] was > 25 µM. For the same compound, the GI50 [37] was 10.8 µM, the TGI [37] was > 25 µM and the GI50 [38] was 3.26 µM. The TGI [38] was > 24 µM, the GI50 [39] was 8.32 µM and the TGI [39] was > 25 µM. For the same compound, the GI50 [40] was 3.87 µM, the TGI [40] was > 18.4 µM and the GI50 [41] was 10.1 µM. The TGI [41] was > 25 µM, the GI50 [42] was 1.8 µM and the TGI [42] was 13.8 µM. The GI50 [43] was 7.21 µM, the TGI [43] was > 25 µM and the GI50 [44] was 7.53 µM. For the same compound, the TGI [44] was > 25 µM, the GI50 [45] was 11.7 µM and the TGI [45] was > 25 µM. The GI50 [46] was 5.33 µM, the TGI [46] was > 25 µM and the GI50 [47] was 0.823 µM. For the same compound, the TGI [47] was > 6.83 µM, the GI50 [57] was 1.27 µM and the TGI [57] was > 25 µM. The GI50 [48] was 1.57 µM, the TGI [48] was > 25 µM and the GI50 [49] was 6.43 µM. The TGI [49] was > 25 µM, the GI50 [50] was 6.79 µM and the TGI [50] was > 25 µM. For the same compound, the GI50 [51] was 6.28 µM, the TGI [51] was > 25 µM and the GI50 [52] was 2.65 µM. For the same compound, the TGI [52] was > 25 µM, the GI50 [58] was 5.56 µM and the TGI [58] was > 25 µM.
